Laboratory results as given in patent US20080280933A1, “BENZIMIDAZOLYL COMPOUNDS” (priority 2006, published 2008).
pEC50: −log10 of the molar value.

The compounds below were run against T1, mGluR2 receptor (metabotropic glutamate receptor 2) (Homo sapiens, UniProt Q14416) (assay: mGluR2 Potentiator Screen, FLIPR, EC10-EC20 glutamate challenge). Conditions: mGluR2 potentiator screen, Table 7; read-out: EC50.
T1 construct: expressed in transfected cells
T1 sequence (Q14416 19-872, species assumed): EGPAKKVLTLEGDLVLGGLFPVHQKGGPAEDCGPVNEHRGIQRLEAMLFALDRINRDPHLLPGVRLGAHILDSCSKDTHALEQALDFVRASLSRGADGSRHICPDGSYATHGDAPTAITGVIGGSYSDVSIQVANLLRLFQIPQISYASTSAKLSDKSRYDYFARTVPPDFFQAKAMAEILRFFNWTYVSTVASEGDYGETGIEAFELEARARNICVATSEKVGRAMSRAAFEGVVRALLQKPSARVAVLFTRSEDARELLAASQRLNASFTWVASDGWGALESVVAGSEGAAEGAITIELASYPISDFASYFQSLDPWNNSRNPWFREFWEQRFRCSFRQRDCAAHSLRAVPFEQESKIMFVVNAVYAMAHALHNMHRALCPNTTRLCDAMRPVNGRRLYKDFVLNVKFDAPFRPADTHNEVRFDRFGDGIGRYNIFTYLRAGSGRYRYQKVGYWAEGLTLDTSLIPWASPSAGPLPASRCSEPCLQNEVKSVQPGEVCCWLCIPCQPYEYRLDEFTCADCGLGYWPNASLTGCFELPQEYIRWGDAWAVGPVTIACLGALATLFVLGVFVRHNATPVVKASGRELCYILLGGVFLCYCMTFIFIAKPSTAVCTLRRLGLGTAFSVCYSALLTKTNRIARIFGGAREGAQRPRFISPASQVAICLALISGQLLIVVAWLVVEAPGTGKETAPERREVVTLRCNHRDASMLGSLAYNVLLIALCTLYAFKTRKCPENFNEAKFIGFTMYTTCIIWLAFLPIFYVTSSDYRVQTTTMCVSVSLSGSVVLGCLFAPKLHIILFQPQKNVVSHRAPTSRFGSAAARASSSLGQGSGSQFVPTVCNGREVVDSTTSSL
Type: cell-based
How it was run: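 HEK cells stably co-expressing mGluR2 and Gα15, kept glutamine-free overnight, were loaded with Fluo-4 plus probenecid and GPT/pyruvate. Compounds (top 10 μM) were added ≥30 min before an EC10–EC20 glutamate challenge. Peak FLIPR fluorescence ratios were curve-fitted, excluding points above maximal effect, with maxima from on-plate standards.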
For `CC[C@H](C)COc1ccc(Cl)cc1C1CCN(Cc2nc3ccccc3n2CCF)CC1` [compound 173], the pEC50 was 5.77. `FCn1c(CN2CCC(c3cc(Cl)ccc3OCC3CCCCO3)CC2)nc2ccccc21` (centres unmarked) [compound 215] showed a pEC50 of 5.80. `COCCn1c(CN2CCC(c3cc(Cl)ccc3OCC(C)C)CC2)nc2ccccc21` [compound 180] gave a pEC50 of 5.52. Compound `CC1(COc2ccc(Cl)cc2C2CCN(Cc3nc4ccccc4n3CCF)CC2)COC1` [compound 212] has a pEC50 of 4.98. `COc1cccc2c1CC[C@H]1CN(Cc3nc4ccccc4n3C)CC[C@H]21` [compound 171] gave a pEC50 of 5.12. `CC(C)COc1ccc(Cl)cc1C1CCN(Cc2nc3ccccc3n2C)CC1` [compound 178] was tested, and the pEC50 was 6.30. `CC[C@H](C)COc1ccc(Cl)cc1C1CCN(Cc2nc3ccccc3n2CCOC)CC1` [compound 176] showed a pEC50 of 5.87.

Same assay, conditions: read-out: EC50
Compound `COc1ccccc1C1CCC(=O)N(Cc2nc3ccccc3n2C)CC1` (centres unmarked) [Entry 291, 5-(2-Methoxy-phenyl)-1-(1-methyl-1H-benzoimidazol-2-ylmethyl)-azepan-2-one] has a pEC50 of 5.33. Work on `Cn1c(CN2CCC(c3ccccc3OC3Cc4ccccc4C3)CC2)nc2ccccc21` [compound 102] yielded a pEC50 of 5.82. Work on `COc1cc(F)ccc1C1CCN(Cc2nc3cccc(F)c3n2C)CC1` [compound 407] yielded a pEC50 of 6.78. With `Cn1c(CN2CCC(c3ccc(F)cc3F)CC2)nc2cc(F)ccc21` [compound 423] the pEC50 was 7.45. `Cn1c(CN2CCC(c3cc(F)cc(F)c3)CC2)nc2cc(Cl)ccc21` [compound 382] showed a pEC50 of 5.15. `Cn1c(CN2CCC(F)(c3ccc(F)cc3)CC2)nc2ccccc21` [compound 434] gave a pEC50 of 6.51. Work on `CC1=C(c2ccccc2)C(C)CN(Cc2nc3ccccc3n2C)C1` (centres unmarked) [compound 440] yielded a pEC50 of 5.55. For `Cn1c(CN2CCC3(CC2)CN(Cc2cccnc2)c2ccccc23)nc2ccccc21` [compound 112], the pEC50 was less than 5.01. For `COc1ccc(C(F)(F)F)cc1C1CCN(Cc2nc3c(F)cccc3n2C)CC1` [compound 397], the pEC50 was 6.36. For `C[C@@H]1CN(Cc2nc3ccccc3n2C)CC[C@@H]1c1ccc(Cl)cc1Cl` (relative stereo) [compound 468], the pEC50 was 7.06. `COC(=O)CCCCC(=O)N1CC2(CCN(Cc3nc4ccccc4n3C)CC2)c2cc(C)ccc21` [compound 30] showed a pEC50 of 5.31. Work on `COc1ccccc1C1CCN(Cc2nc3cc(C(=O)O)ccc3n2C)CC1` [Entry 288, 2-[4-(2-Methoxy-phenyl)-piperidin-1-ylmethyl]-1-methyl-1H-benzoimidazole-5-carboxylic acid] yielded a pEC50 of 5.77. With `COc1ccc(C(F)(F)F)cc1C1CCN(Cc2nc3cc(F)ccc3n2C)CC1` [compound 377] the pEC50 was 6.07. With `Cc1cc(C)c2c(c1)C1(CCN(Cc3nc4ccccc4n3C)CC1)CN2CC(C)C` [compound 125] the pEC50 was 5.41. Compound `C#CCOc1ccc(Cl)cc1C1CCN(Cc2nc3ccccc3n2C2CC2)CC1` [compound 235] has a pEC50 of 6.59. `COc1ccccc1C1CCN(Cc2nc3cccc(F)c3n2C)CC1` [compound 343] was tested, and the pEC50 was 7.78. `Cc1ccc2c(c1)C1(CCN(Cc3nc4ccccc4n3C)CC1)CN2C(=O)c1snnc1C` [compound 21] gave a pEC50 of 5.94. Work on `CCCN1CC2(CCN(Cc3nc4ccccc4n3C)CC2)c2cc(C)cc(C)c21` [compound 145] yielded a pEC50 of 5.57. `Cc1nnsc1C(=O)N1CC2(CCN(Cc3nc4ccccc4n3C)CC2)c2cc(Cl)ccc21` [compound 25] gave a pEC50 of 5.87. For `C[C@@H]1CN(Cc2nc3ccccc3n2C)CC[C@@H]1c1ccc(C(F)(F)F)cc1` (relative stereo) [compound 404], the pEC50 was 6.33. `CCOc1ccc(C2CCN(Cc3nc4ccccc4n3C)CC2)cc1` [compound 442] showed a pEC50 of 7.09. With `FCn1c(CN2CCC(c3ccccc3F)CC2)nc2ccccc21` [compound 253] the pEC50 was 6.94. `CCCC(=O)N1CC2(CCN(Cc3nc4ccccc4n3C)CC2)c2cc(C)ccc21` [compound 38] showed a pEC50 of 6.41. With `CCCN1CC2(CCN(Cc3nc4ccccc4n3C)CC2)c2cc(F)ccc21` [compound 137] the pEC50 was less than 5.10. `Cn1c(CN2CCC(c3ccccc3OCCc3ccccn3)CC2)nc2ccccc21` [compound 97] showed a pEC50 of less than 5.02. For `CCC(=O)N1CC2(CCN(Cc3nc4ccccc4n3C)CC2)c2cc(C)ccc21` [compound 23], the pEC50 was 6.03. Compound `CC(C)CN1CC2(CCN(Cc3nc4ccccc4n3C)CC2)c2ccccc21` [compound 106] has a pEC50 of 5.59. Compound `Cn1c(CN2CCC(c3cccc(C(F)(F)F)c3)CC2)nc2cc(Cl)ccc21` [compound 381] has a pEC50 of 5.80. `Cn1c(CN2CCC(c3ccccc3C(F)(F)F)CC2)nc2cc(Cl)ccc21` [compound 373] showed a pEC50 of 5.76. For `Cn1c(CN2CCC3(CC2)CN(CC2CCCO2)c2ccc(F)cc23)nc2ccccc21` (centres unmarked) [compound 117], the pEC50 was less than 5.05. “2-((4-(2-Fluorophenyl)piperidin-1-yl)methyl)-1-methyl-1H-benzo[d]imidazol-5-carboxamide [Entry 363]” was tested, and the pEC50 was 5.28. In the case of `Cn1c(CN2CCC(c3ccccc3F)CC2)nc2cc(F)ccc21` [compound 352], the pEC50 was 7.05. In the case of `Cn1c(CN2CCC(c3ccccc3C(F)(F)F)CC2)nc2ccccc21` [compound 257], the pEC50 was 6.96. Work on `Cc1cc(C(=O)N2CC3(CCN(Cc4nc5ccccc5n4C)CC3)c3ccccc32)n(C)n1` [compound 53] yielded a pEC50 of less than 5.20. Compound `Cn1c(CN2CCC(c3ccccc3O)CC2)nc2ccccc21` [compound 265] has a pEC50 of 5.84. `Cn1c(CN2CCC(c3ccc(F)cc3)CC2)nc2cc(F)c(F)cc21` [compound 368] was tested, and the pEC50 was 6.32. For `Cn1c(CN2CCC(c3ccc(C(F)(F)F)cc3)C(F)C2)nc2ccccc21` (centres unmarked) [compound 441], the pEC50 was 6.80. `Cc1noc(C)c1C(=O)N1CC2(CCN(Cc3nc4ccccc4n3C)CC2)c2ccccc21` [compound 54] was tested, and the pEC50 was less than 5.25. In the case of `Cc1ccc2c(c1)C1(CCN(Cc3nc4ccccc4n3C)CC1)CN2C(=O)c1cccnc1` [compound 35], the pEC50 was 5.44. `COCCn1c(CN2CCC(c3cc(Cl)ccc3OC)CC2)nc2ccccc21` [compound 230] was tested, and the pEC50 was 6.68.
